This passage reports survival and Activity results from ChEMBL document CHEMBL1150801, “Efficacy of fluoroquinolones against Leptospira interrogans in a hamster model” (Antimicrob Agents Chemother, 2007).

Series [1] deals with Leptospira interrogans serovar Portlandvere. In words: Antimicrobial activity against Leptospira interrogans serovar Portlandvere infected golden Syrian hamster model of acute lethal leptospirosis assessed as survival at 50 mg/kg/day, ip once daily for 5 days administered 2 day after infection. The class given is functional. The settings on record: route intraperitoneal.
The test system is the same in series [2]. The series is described as follows: Antimicrobial activity against Leptospira interrogans serovar Portlandvere infected golden Syrian hamster model of acute lethal leptospirosis assessed as survival at 25 mg/kg/day, ip once daily for 5 days administered 2 day after infection. The settings on record: route intraperitoneal. In kind it is functional.
Series [3] shares this test system. The series is described as follows: Antimicrobial activity against Leptospira interrogans serovar Portlandvere infected golden Syrian hamster model of acute lethal leptospirosis assessed as survival at 5 mg/kg/day, ip once daily for 5 days administered 2 day after infection. The class given is functional. The settings on record: for survival at 5 mg/kg/day: route intraperitoneal.

Another series relates to Syrian golden hamster. The series is described as follows: Toxicity against Leptospira interrogans serovar Portlandvere infected golden Syrian hamster model of acute lethal leptospirosis assessed as induction of diarrhea at 50 mg/kg/day, ip once daily for 5 days administered 2 day after infection. In kind it is organism-based, Mesocricetus auratus. The settings on record: in vivo. Details: route intraperitoneal.

Calls of active or inactive are those of the source. No cut-off for these calls is given here.

Consider `C[C@H]1COc2c(N3CCN(C)CC3)c(F)cc3c(=O)c(C(=O)O)cn1c23` [LEVOFLOXACIN], for which, in series [1], the survival at 50 mg/kg/day was determined as 95%. Further, in series [2], the survival at 25 mg/kg/day stood at 95%. Moreover, the survival at 5 mg/kg/day in series [3] came out at 40%.

`C[C@H]1c2cccc(O)c2C(=O)C2=C(O)[C@]3(O)C(=O)C(C(N)=O)=C(O)[C@@H](N(C)C)[C@@H]3[C@@H](O)[C@@H]21`: the result in series [3] was Active.

With `O=C(O)c1cn(C2CC2)c2cc(N3CCNCC3)c(F)cc2c1=O` [CIPROFLOXACIN], in series [1], the survival at 50 mg/kg/day amounted to 90%. Further, the survival at 25 mg/kg/day in series [2] amounted to 60%. Besides, the outcome in series [3] was Active.

`COc1c(N2CCNC(C)C2)c(F)cc2c(=O)c(C(=O)O)cn(C3CC3)c12` (stereo unspecified) [GATIFLOXACIN]: in series [1], the survival at 50 mg/kg/day is 60%. Besides, the survival at 25 mg/kg/day in series [2] was 100%. In series [3], the survival at 5 mg/kg/day turned out to be 90%. The Activity result in the series with Syrian golden hamster is listed as “Toxic”.
